Measurements taken from article PMC12406200, “Structural Basis of PPARγ-Mediated Transcriptional Repression by the Covalent Inverse Agonist FX-909” (Journal of Medicinal Chemistry, 2025).

Tests used:
[1] = molecular target: T1, full-length human PPARγ (isoform 2) (Homo sapiens, UniProt P37231); test: Transcriptional reporter assay (3xPPRE-luciferase) in HEK293T cells transfected with full-length PPARγ; assay type: cell-based; conditions: for IC50: full-length PPARγ + 3xPPRE-luciferase, 18 h treatment, n = 4, three-parameter fit, read-out: cellular IC50 (decrease in PPARγ-mediated transcription)
T1 construct: full-length human PPARγ (isoform 2) expression plasmid; expressed in transfected cells; host or cells: HEK293T (ATCC #CRL-11268)
T1 sequence (P37231 1-505): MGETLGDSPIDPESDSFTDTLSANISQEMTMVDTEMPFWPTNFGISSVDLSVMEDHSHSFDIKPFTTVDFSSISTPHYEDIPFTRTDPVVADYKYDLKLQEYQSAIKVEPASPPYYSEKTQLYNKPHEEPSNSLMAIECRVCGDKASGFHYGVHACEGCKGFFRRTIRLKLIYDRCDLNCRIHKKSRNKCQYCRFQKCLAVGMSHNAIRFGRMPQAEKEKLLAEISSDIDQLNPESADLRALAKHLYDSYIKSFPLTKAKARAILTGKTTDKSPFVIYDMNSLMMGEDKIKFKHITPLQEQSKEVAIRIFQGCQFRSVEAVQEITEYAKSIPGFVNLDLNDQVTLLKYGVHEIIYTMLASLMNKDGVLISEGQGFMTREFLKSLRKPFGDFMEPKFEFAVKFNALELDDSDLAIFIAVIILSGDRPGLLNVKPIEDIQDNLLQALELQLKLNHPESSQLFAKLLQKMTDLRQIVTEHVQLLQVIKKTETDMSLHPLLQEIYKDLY
Method: 1 Pharmacological PPARγ ligand set used in this study. (A) Chemical structures and pharmacological properties of the ligands. […] (B) Transcriptional reporter assay performed in HEK293T cells transfected with a full-length PPARγ expression plasmid and a 3xPPRE-luciferase reporter plasmid. Data were normalized to cells treated with DMSO control, represented as mean ± s.d.
After an 18 h incubation, cells were transferred to white 384-well cell culture plates (Thermo Fisher Scientific) at 10,000 cells/well in 20 μL total volume/well. After a 4 h incubation, cells were treated in quadruplicate with 20 μL of either vehicle control (1.5% DMSO in DMEM) or a 3-fold serial dilution of ligands (1 μM highest ligand concentration). After a final 18 h incubation, cells were harvested with 20 μL of Britelite Plus (PerkinElmer), and luminescence was measured on a BioTek Synergy Neo multimode plate reader. Data were plotted in GraphPad Prism as luminescence vs ligand concentration as mean ± s.d. (n = 4) and fit to a three-parameter sigmoidal dose–response curve equation.

[2] = molecular target: T2, PPARγ LBD / NCoR1 corepressor peptide (Homo sapiens, UniProt P37231); test: TR-FRET coregulator interaction assay, NCoR1 corepressor peptide; assay type: biochemical; conditions: for EC50: 4 nM 6xHis-PPARγ LBD, 400 nM FITC-NCoR1 peptide, 1 h at 25 °C, n = 3, read-out: NCoR1 TR-FRET EC50 (increase in NCoR1 peptide interaction)
T2 construct: residues 203–477 (isoform 1 numbering) with a TEV-cleavable N-terminal hexa-his-tag; made in house; host or cells: Escherichia coli BL21(DE3), pET46 plasmid
T2 sequence (P37231 203-477 isoform P37231-2): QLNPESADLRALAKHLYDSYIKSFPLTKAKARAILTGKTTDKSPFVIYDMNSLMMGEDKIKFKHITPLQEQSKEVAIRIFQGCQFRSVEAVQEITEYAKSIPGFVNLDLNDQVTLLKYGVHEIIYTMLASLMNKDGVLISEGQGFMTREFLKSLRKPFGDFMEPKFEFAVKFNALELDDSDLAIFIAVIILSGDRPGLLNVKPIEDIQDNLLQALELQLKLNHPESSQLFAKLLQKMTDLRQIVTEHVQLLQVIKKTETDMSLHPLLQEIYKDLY
Description: (§1) We next characterized the ligand set using biochemical assays that report on ligand-dependent changes in the interaction between PPARγ LBD and FITC-labeled peptides derived from NR coregulator proteins that contribute to PPARγ-mediated transcription in cells, including the TRAP220/MED1 coactivator and NCoR1 corepressor. We used time-resolved fluorescence resonance energy transfer (TR-FRET) assays to determine relative ligand potency (or covalent reactivity) and efficacy (via increased or decreased TR-FRET ratio values). […] We performed fluorescence polarization (FP) assays to directly measure binding affinities between the PPARγ LBD and coregulator peptides.
(§2) 2 Biochemical coregulator profiling data. Time-resolved fluorescence resonance energy transfer (TR-FRET) coregulator interaction assay performed with (A) the NCoR1 corepressor peptide or (B) the TRAP220/MED1 coactivator peptide in the presence of the indicated ligands. Data represent mean ± s.e.m. […] Fluorescence polarization (FP) binding assay performed with (C) NCoR1 corepressor peptide or (D) TRAP220/MED1 coactivator peptide in the presence of the indicated ligands. Data represent mean ± s.e.m. […] (E) Pairwise correlation plots between PPARγ-mediated transcription (y-axis) and biochemical coregulator profiling data (x-axis). Spearman correlation coefficients (r p) and associated two-tailed p values are listed.
(§3) Time-resolved fluorescence resonance energy transfer (TR-FRET) coregulator peptide interaction assays were performed in low-volume black 384-well plates (Greiner) using a 23 μL final well volume. Each well contained 4 nM protein (WT or mutant 6xHis-PPARγ LBD), 1 nM LanthaScreen Elite Tb-anti-His Antibody (ThermoFisher #PV5895), and 400 nM FITC-labeled TRAP220/MED1 and NCoR1 peptide in a buffer containing 20 mM potassium phosphate (pH 7.4), 50 mM KCl, 5 mM TCEP, and 0.005% Tween 20. Ligand stocks were prepared via serial dilution in DMSO, added to wells in triplicate (10 μM highest final ligand concentration), and plates were read using BioTek Synergy Neo multimode plate reader after incubation for 1 h at 25 °C.

[3] = molecular target: T3, PPARγ LBD / TRAP220/MED1 coactivator peptide (Homo sapiens, UniProt P37231); test: TR-FRET coregulator interaction assay, TRAP220/MED1 coactivator peptide; assay type: biochemical; conditions: for IC50: 4 nM 6xHis-PPARγ LBD, 400 nM FITC-TRAP220/MED1 peptide, 1 h at 25 °C, n = 3, read-out: MED1 TR-FRET IC50 (decrease in TRAP220/MED1 peptide interaction)
T3 construct: residues 203–477 (isoform 1 numbering) with a TEV-cleavable N-terminal hexa-his-tag; made in house; host or cells: Escherichia coli BL21(DE3), pET46 plasmid
T3 sequence (P37231 203-477 isoform P37231-2): T2 sequence (P37231 203-477 isoform P37231-2)
Description: as §1, §2, §3

For `O=C(Nc1ccccc1)c1cc([N+](=O)[O-])ccc1Cl` [GW9662], the “effect on PPARγ-mediated transcription (in words)” value ([1]; 3xPPRE-luciferase reporter) was “no change in activity”, the EC50 [2] was 17 nM and the “effect on NCoR1 corepressor peptide interaction, TR-FRET efficacy (in words)” value ([2]; TR-FRET ratio) was “relatively little change in efficacy”. The “effect on TRAP220/MED1 coactivator peptide interaction, TR-FRET efficacy (in words)” value ([3]; TR-FRET ratio) was “relatively little change in efficacy”.
With `CS(=O)(=O)c1ccc(C#N)cc1-c1cc(=O)c2c(F)cc(F)cc2[nH]1` [FX-909, 3-(5,7-difluoro-4-oxo-1,4-dihydroquinolin-2-yl)-4-(methylsulfonyl)benzonitrile] the IC50 [1] was 1.31 nM, the EC50 [2] was 33 nM and the IC50 [3] was 16 nM.
In the case of `N#Cc1ccc(NC(=O)c2cc([N+](=O)[O-])ccc2Cl)cn1` [SR33068], the IC50 [1] is reported as 1.58 nM, the EC50 [2] is reported as 17 nM and the IC50 [3] is reported as 5 nM.
